Assays:
Format in all cases: in vivo
[1] = tested on: pigweed (Amaranthus retroflexus); assay: Test A postemergence, pigweed; conditions: postemergence, 0 to 100 scale, 0 is no effect, 100 is complete control, approximately 10 days
Outline: (§1)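 Visual injury rating versus untreated controls on a 0 to 100 scale (0 = no effect, 100 = complete control), taken about 10 days after treatment in the greenhouse. Preemergence: directed soil spray over seeded loam–sand. Postemergence: spray on one- to two-leaf plants, 2 to 10 cm tall.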

[2] = tested on: barnyardgrass (Echinochloa crus-galli); assay: Test A postemergence, barnyardgrass; conditions: postemergence, 0 to 100 scale, 0 is no effect, 100 is complete control, approximately 10 days
Outline: as §1

[3] = tested on: barnyardgrass (Echinochloa crus-galli); assay: Test B flooded paddy test, barnyardgrass; conditions: 250 g ai/ha, Flood; visual rating after 13 to 15 days; scale 0 to 100, 0 is no effect, 100 is complete control
Outline: (§2)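 Seedlings at the 2-leaf stage are flooded to 3 cm and treated via the paddy water. Greenhouse plants are compared with controls after 13 to 15 days and given a 0 (no effect) to 100 (complete control) rating.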

[4] = tested on: kochia (Kochia scoparia); assay: Test A preemergence, kochia; conditions: Preemergence, 0 to 100 scale (0 no effect, 100 complete control)
Outline: as §1

[5] = tested on: foxtail, giant (giant foxtail, Setaria faberii); assay: Test A preemergence, giant foxtail; conditions: Preemergence, 0 to 100 scale (0 no effect, 100 complete control)
Outline: as §1

[6] = tested on: ragweed (common ragweed, Ambrosia elatior); assay: Test A postemergence, ragweed; conditions: postemergence, 0 to 100 scale, 0 is no effect, 100 is complete control, approximately 10 days
Outline: as §1

[7] = tested on: galium (catchweed bedstraw, Galium aparine); assay: Test A postemergence, galium; conditions: postemergence, 0 to 100 scale, 0 is no effect, 100 is complete control, approximately 10 days
Outline: as §1

[8] = tested on: corn (Zea mays); assay: Test A postemergence, corn; conditions: postemergence, 0 to 100 scale, 0 is no effect, 100 is complete control, approximately 10 days
Outline: as §1

[9] = tested on: kochia (Kochia scoparia); assay: Test A postemergence, kochia; conditions: postemergence, 0 to 100 scale, 0 is no effect, 100 is complete control, approximately 10 days
Outline: as §1

[10] = tested on: ragweed (common ragweed, Ambrosia elatior); assay: Test A preemergence, ragweed; conditions: Preemergence, 0 to 100 scale (0 no effect, 100 complete control)
Outline: as §1

[11] = tested on: foxtail, giant (giant foxtail, Setaria faberii); assay: Test A postemergence, giant foxtail; conditions: postemergence, 0 to 100 scale, 0 is no effect, 100 is complete control, approximately 10 days
Outline: as §1

[12] = tested on: wheat (Triticum aestivum); assay: Test A postemergence, wheat; conditions: postemergence, 0 to 100 scale, 0 is no effect, 100 is complete control, approximately 10 days
Outline: as §1

[13] = tested on: sedge, umbrella (small-flower umbrella sedge, Cyperus difformis); assay: Test B flooded paddy test, umbrella sedge; conditions: 250 g ai/ha, Flood; visual rating after 13 to 15 days; scale 0 to 100, 0 is no effect, 100 is complete control
Outline: as §2

[14] = tested on: ryegrass, Italian (Italian ryegrass, Lolium multiflorum); assay: Test A postemergence, Italian ryegrass; conditions: postemergence, 0 to 100 scale, 0 is no effect, 100 is complete control, approximately 10 days
Outline: as §1

[15] = tested on: rice (Oryza sativa); assay: Test B flooded paddy test, rice; conditions: 250 g ai/ha, Flood; visual rating after 13 to 15 days; scale 0 to 100, 0 is no effect, 100 is complete control
Outline: as §2

[16] = tested on: ducksalad (Heteranthera limosa); assay: Test B flooded paddy test, ducksalad; conditions: 250 g ai/ha, Flood; visual rating after 13 to 15 days; scale 0 to 100, 0 is no effect, 100 is complete control
Outline: as §2

[17] = tested on: pigweed (Amaranthus retroflexus); assay: Test A preemergence, pigweed; conditions: Preemergence, 0 to 100 scale (0 no effect, 100 complete control)
Outline: as §1

[18] = tested on: blackgrass (Alopecurus myosuroides); assay: Test A postemergence, blackgrass; conditions: postemergence, 0 to 100 scale, 0 is no effect, 100 is complete control, approximately 10 days
Outline: as §1

[19] = tested on: barnyardgrass (Echinochloa crus-galli); assay: Test A preemergence, barnyardgrass; conditions: Preemergence, 0 to 100 scale (0 no effect, 100 complete control)
Outline: as §1

[20] = tested on: ryegrass, Italian (Italian ryegrass, Lolium multiflorum); assay: Test A preemergence, Italian ryegrass; conditions: Preemergence, 0 to 100 scale (0 no effect, 100 complete control)
Outline: as §1

Row | Structure (SMILES) | Plant response rating, Pigweed ([1]; 31 g ai/ha) | Plant response rating, Pigweed ([1]; 125 g ai/ha) | Plant response rating, Barnyardgrass ([2]; 31 g ai/ha) | Plant response rating, Barnyardgrass ([2]; 125 g ai/ha) | Plant response rating, Barnyardgrass [3] | Plant response rating, Kochia ([4]; 31 g ai/ha) | Plant response rating, Kochia ([4]; 125 g ai/ha) | Plant response rating, Foxtail, Giant ([5]; 31 g ai/ha) | Plant response rating, Foxtail, Giant ([5]; 125 g ai/ha) | Plant response rating, Ragweed ([6]; 31 g ai/ha) | Plant response rating, Ragweed ([6]; 125 g ai/ha) | Plant response rating, Galium ([7]; 31 g ai/ha) | Plant response rating, Galium ([7]; 125 g ai/ha) | Plant response rating, Corn ([8]; 31 g ai/ha) | Plant response rating, Corn ([8]; 125 g ai/ha) | Plant response rating, Kochia ([9]; 31 g ai/ha) | Plant response rating, Kochia ([9]; 125 g ai/ha) | Plant response rating, Ragweed ([10]; 31 g ai/ha) | Plant response rating, Ragweed ([10]; 125 g ai/ha) | Plant response rating, Foxtail, Giant ([11]; 31 g ai/ha) | also measured
1 | FC(F)(F)/C=C/COc1c(Cl)cccc1Oc1ncc(Cl)cn1 [Compound 47] | 20 | 90 | 10 | 40 | 0 | 0 | 80 | 30 | 100 | 0 | 10 | 50 | 80 | 10 | 20 | 50 | 90 | 0 | 0 | 20 | Plant response rating, Foxtail, Giant ([11]; 125 g ai/ha): 70; Plant response rating, Wheat ([12]; 31 g ai/ha): 0; Plant response rating, Wheat ([12]; 125 g ai/ha): 0; Plant response rating, Sedge, Umbrella [13]: 100; Plant response rating, Ryegrass, Italian ([14]; 31 g ai/ha): 0; Plant response rating, Ryegrass, Italian ([14]; 125 g ai/ha): 10; Plant response rating, Rice [15]: 0; Plant response rating, Ducksalad [16]: 85; Plant response rating, Pigweed ([17]; 31 g ai/ha): 0; Plant response rating, Pigweed ([17]; 125 g ai/ha): 60; Plant response rating, Blackgrass ([18]; 31 g ai/ha): 10; Plant response rating, Blackgrass ([18]; 125 g ai/ha): 50; Plant response rating, Barnyardgrass ([19]; 31 g ai/ha): 10; Plant response rating, Barnyardgrass ([19]; 125 g ai/ha): 50; Plant response rating, Ryegrass, Italian ([20]; 31 g ai/ha): 0; Plant response rating, Ryegrass, Italian ([20]; 125 g ai/ha): 10
2 | FCCCOc1c(I)cccc1Oc1ncc(Cl)cn1 [Compound 66] | 90 | 100 | 0 | 50 | 0 | 0 | 60 | 50 | 100 | 0 | 0 | 40 | 90 | 0 | 30 | 90 | 100 | 0 | 0 | 10 | Plant response rating, Foxtail, Giant ([11]; 125 g ai/ha): 30; Plant response rating, Wheat ([12]; 31 g ai/ha): 0; Plant response rating, Wheat ([12]; 125 g ai/ha): 0; Plant response rating, Sedge, Umbrella [13]: 100; Plant response rating, Ryegrass, Italian ([14]; 31 g ai/ha): 0; Plant response rating, Ryegrass, Italian ([14]; 125 g ai/ha): 20; Plant response rating, Rice [15]: 20; Plant response rating, Ducksalad [16]: 100; Plant response rating, Pigweed ([17]; 31 g ai/ha): 70; Plant response rating, Pigweed ([17]; 125 g ai/ha): 100; Plant response rating, Blackgrass ([18]; 31 g ai/ha): 10; Plant response rating, Blackgrass ([18]; 125 g ai/ha): 30; Plant response rating, Barnyardgrass ([19]; 31 g ai/ha): 20; Plant response rating, Barnyardgrass ([19]; 125 g ai/ha): 70; Plant response rating, Ryegrass, Italian ([20]; 31 g ai/ha): 0; Plant response rating, Ryegrass, Italian ([20]; 125 g ai/ha): 10
